Here are results for seven molecules from PubChem BioAssay (NCI).

Assay in all cases: growth of human tumour cells (NCI), 48 h
The subject of assay [1] is ACHN renal.
Assay [2] deals with MALME-3M melanoma.
Assay [3] concerns NCI/ADR-RES ovarian.
The subject of assay [4] is HCT-15 colon.
The test system of assay [5] is UO-31 renal.
Assay [6] concerns SF-539 CNS.
Assay [7] relates to SF-295 CNS.
In assay [8] the test system is A498 renal.
For assay [9], the system named is PC-3 prostate.
For assay [10], the system named is SK-MEL-28 melanoma.

Molecules are shown by their SMILES.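 Values below derive from 48-hour exposures of cells grown in 96-well plates, with endpoints linearly interpolated between the two concentrations bracketing the appropriate inhibition level. GI50 = concentration required for 50% inhibition of growth. TGI denotes the concentration required for complete inhibition of growth.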 *1 amine or outer side, *2 acyl side, *3 side chain or, on linkers, in order; H or OH if unused. Where a SMILES comes first, the peptide text is derived from it. [ ]: non-standard residue; d: D form. The star is where a group is joined. ξ: configuration not given here. X15 = CCN(CC)c1ccc2cc(N*)c(=O)oc2c1; dIva = CC[C@@](C)(N)C(=O)O; X14 = O=C(OCCN[*:1])[*:2]; Aib = CC(C)(N)C(=O)O; ξP = O=C(O)C1CCCN1; βAla = NCCC(=O)O

Regarding `CS(=O)(=O)Nc1ccc(N=Cc2c(O)[nH]c3ccccc23)cc1`, the GI50 in assay [1] is more than 25 µM; in assay [2] it was more than 25 µM; in assay [3] it was more than 25 µM; in assay [4], more than 25 µM; in [5] it was more than 8.56 µM; in [6], more than 25 µM. In addition, the GI50 in assay [7], in [8], in assay [9] and in assay [10] was more than 25 µM each time. The TGI in assay [1], in assay [2], in [3], in assay [4], in [5] and in assay [6] was more than 25 µM each time. For the same molecule, the TGI in [7], in [8], in assay [9] and in [10] was more than 25 µM each time.
As for `COc1ccc(/C=C2\CCC(CN(C)C)C2=O)cc1OC` (stereo not given), the TGI came to 15.9 µM in assay [1]; 11.7 µM in assay [2]; 7.19 µM in [3]; 8.81 µM in assay [4]; 24.6 µM in [5]; 25 µM in assay [6]. The TGI in [7] is 29.2 µM; in assay [8], 27.8 µM; in assay [9] it was 13.9 µM; in assay [10], 13.8 µM.
For the molecule `COc1ccc2c(c1)C(C)Cc1c(Cl)nc(C)nc1N2C` (stereo not given), the GI50 was 5.61 µM in assay [1]; 12.4 µM in assay [2]; 1.7 µM in assay [3]; 1.33 µM in [4]; 3.99 µM in assay [5]; 1.68 µM in assay [6]. The GI50 in assay [7] is 1.74 µM; in assay [8], 6.79 µM; in assay [9] it was 2.99 µM; in assay [10] it was 3.4 µM. Besides, the TGI in [1] was more than 100 µM; in assay [2] it was 37.8 µM; in assay [3], 16.7 µM; in assay [4] it was 8.05 µM; in [5], 36.1 µM; in assay [6], 6.11 µM. Also, the TGI in [7] was 7.92 µM; in assay [8] it was 25 µM; in [9], more than 100 µM; in assay [10] it was 38.5 µM.
As to `CC(=O)O[C@H]1CC[C@@]2(C)[C@@H](CC[C@@H]3[C@@H]2CC[C@]2(C)C=C(C=O)C[C@@H]32)C1`, the GI50 is 20.2 µM in [1]; 3.64 µM in assay [2]; 5.35 µM in assay [3]; 2.26 µM in assay [4]; 18.8 µM in assay [5]; 3.66 µM in [6]. In addition, the GI50 was 17.4 µM in [7], 94.6 µM in assay [8], 6.53 µM in [9] and 3.98 µM in assay [10]. Moreover, the TGI was 60.8 µM in assay [1]; 12.6 µM in [2]; more than 100 µM in assay [3]; 12.1 µM in assay [4]; 35.3 µM in assay [5]; 12.7 µM in assay [6]. Moreover, the TGI in assay [7] was 36 µM; in assay [8] it was more than 100 µM; in assay [9] it was 27.5 µM; in assay [10], 13.5 µM.
With `CCN(CC)c1ccc2cc(NC(=O)OCCNC(=O)CCNC(=O)[C@H](CC(C)C)NC(=O)C(C)(C)NC(=O)C(C)(C)NC(=O)[C@H](CC(C)C)NC(=O)CCNC(=O)C(C)(C)NC(=O)[C@H](CC(C)C)NC(=O)CCNC(=O)[C@@](C)(CC)NC(=O)[C@H](C)NC(=O)CCNC(=O)C(C)(C)NC(=O)[C@H](C)NC(=O)[C@@H]3CCCN3C(=O)[C@@](C)(CC)NC(=O)[C@H](Cc3ccccc3)NC(=O)C3CCCN3C(=O)C(C)(C)NC(=O)C3CCCN3C(=O)C(C)(C)NC(C)=O)c(=O)oc2c1` (stereo not given in full) (Ac-[Aib][ξP][Aib][ξP]F[dIva]PA[Aib][βAla]A[dIva][βAla]L[Aib][βAla]L[Aib][Aib]L[βAla][X14]-X15), the GI50 in [1] was 0.0406 µM; in assay [2] it was 0.0021 µM; in assay [3], 0.176 µM; in assay [4], 0.135 µM; in [5], 0.0296 µM; in assay [6], 0.00491 µM. For the same molecule, the GI50 was 0.00316 µM in assay [7], 0.00291 µM in assay [8], 0.00311 µM in assay [9] and 0.00783 µM in assay [10]. Further, the TGI in assay [1] was found to be 0.16 µM; in assay [2], 0.00597 µM; in assay [3] it was 0.378 µM; in assay [4], 0.278 µM; in [5], 0.114 µM; in assay [6] it was 0.0202 µM. In addition, the TGI in [7] worked out at 0.0103 µM; in [8], 0.0265 µM; in assay [9] it was 0.0281 µM; in assay [10], 0.0325 µM.
On to `COCCNc1cc(NC(=O)N2CCCc3cc(CN4CCN(C)CC4=O)c(C=O)nc32)ncc1C#N`, for which the GI50 in [1] is 23 µM; in assay [2], more than 50 µM; in assay [3], more than 50 µM; in [4] it was 33.1 µM; in assay [5] it was more than 50 µM; in assay [6], more than 50 µM. Besides, the GI50 in assay [7], in assay [8], in assay [9] and in assay [10] was more than 50 µM in each case. Also, the TGI in [1], in assay [2], in assay [3], in assay [4], in [5] and in [6] was more than 50 µM each time. Further, the TGI in [7], in [8], in assay [9] and in assay [10] was more than 50 µM in each case.
For `O=C(c1cccnc1)c1cc(-c2ccccn2)c(=O)n2ccccc12`, the GI50 in assay [1], in assay [2], in [3], in [4], in [5] and in assay [6] was more than 100 µM each time. Besides, the GI50 in assay [7], in [8], in assay [9] and in assay [10] was more than 100 µM each time. Besides, the TGI in assay [1], in assay [2], in assay [3], in [4], in assay [5] and in assay [6] was more than 100 µM throughout. The TGI in [7], in assay [8], in [9] and in assay [10] was more than 100 µM each time.
